This is an account of results in ChEMBL document CHEMBL1149915, “Natural products as leads to potential drugs: an old process or the new hope for drug discovery?” (J Med Chem, 2008).

Some results are limits rather than exact numbers.

The nature of test [1]: Inhibition of cyclin dependent kinase.
The target in test [2] is Cyclin-dependent kinase 2 (Homo sapiens, UniProt P24941). The test is described as follows: Inhibition of Cdk2/cyclin A.
The nature of test [3]: Inhibition of inositol 1,4,5-triphosphate 3-kinase.
Test [4] has as its target Cyclin-dependent kinase 1/cyclin B1 (Homo sapiens, UniProt P06493). The experiment in a line: Inhibition of Cdk1/cyclin B.
The nature of test [5]: Inhibition of beta-arylsulfotransferase 4.

Sequence of Cyclin-dependent kinase 1/cyclin B1 (P06493 whole entry): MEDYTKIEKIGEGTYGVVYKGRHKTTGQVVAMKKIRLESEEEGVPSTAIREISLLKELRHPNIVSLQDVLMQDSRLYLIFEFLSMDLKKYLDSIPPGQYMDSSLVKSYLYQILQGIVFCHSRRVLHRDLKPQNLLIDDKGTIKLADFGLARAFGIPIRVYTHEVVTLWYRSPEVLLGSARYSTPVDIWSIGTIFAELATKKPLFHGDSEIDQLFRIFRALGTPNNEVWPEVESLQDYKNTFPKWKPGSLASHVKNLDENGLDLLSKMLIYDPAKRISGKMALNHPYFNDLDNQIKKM
Sequence of Cyclin-dependent kinase 1/cyclin B1 (P14635 whole entry, further chain): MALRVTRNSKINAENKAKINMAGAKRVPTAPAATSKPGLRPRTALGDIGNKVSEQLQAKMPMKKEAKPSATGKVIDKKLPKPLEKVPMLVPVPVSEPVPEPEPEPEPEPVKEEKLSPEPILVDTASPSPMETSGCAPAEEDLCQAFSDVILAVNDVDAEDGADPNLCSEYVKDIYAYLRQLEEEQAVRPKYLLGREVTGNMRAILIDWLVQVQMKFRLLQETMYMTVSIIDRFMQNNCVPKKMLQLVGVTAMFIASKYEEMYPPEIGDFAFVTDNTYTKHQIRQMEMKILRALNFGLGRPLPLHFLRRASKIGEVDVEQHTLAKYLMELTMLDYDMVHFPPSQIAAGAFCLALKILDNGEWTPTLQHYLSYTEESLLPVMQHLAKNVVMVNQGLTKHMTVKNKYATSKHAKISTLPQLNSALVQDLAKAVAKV

`CC[C@H](CO)Nc1nc(Nc2cc(Cl)cc(C(=O)O)c2)c2ncn(C(C)C)c2n1` yielded an IC50 in test [1] of 0.004 µM.

In the case of `OCCn1cnc2c(NCc3ccccc3)nc(NCc3ccc(Br)cc3)nc21`, the IC50 in test [2] was found to be 20 µM.

On to `CC[C@H](CO)Nc1nc(NCc2ccccc2)c2ncn(C(C)C)c2n1` [SELICICLIB], for which the IC50 in test [1] is 0.45 µM.

In turn, `CC[C@H](CO)Nc1nc(Nc2cccc(Cl)c2)c2ncn(C(C)C)c2n1` had an IC50 in test [1] of 0.004 µM. This IC50 lies about 110-fold lower than the previous one.

Consider `O=[N+]([O-])c1ccc(CNc2nc(NCc3cccc(C(F)(F)F)c3)nc3[nH]cnc23)cc1`, for which the IC50 in test [3] is 10.2 µM; in test [4], over 100 µM.

For `Cn1cnc2c(NCc3ccccc3)nc(NCCO)nc21` [OLOMOUCINE], the IC50 in test [1] is 1000 µM.

Regarding `Clc1nc(NCc2cccc3ccccc23)c2nc[nH]c2n1`, the affinity in test [5], expressed as Ki, was 0.096 µM. This counts as double-digit nanomolar.

One may read the IC50 as the concentration that gives 50% inhibition. Low values mean greater potency in that assay, high ones weaker potency in that assay. One may read the Ki as the dissociation constant of the complex between target and ligand, obtained from inhibition or displacement.
